Measured values: PubChem BioAssay AID272 (DTP/NCI, 2004)
Several values for one entry are separate records, joined by “and”; a condition that tells them apart may be missing. Identical values can stand only once. Records with an inconclusive call do not appear.

System: Lewis lung carcinoma i.m., BDF1 mice, T/C %
Test: NCI In Vivo Anticancer Drug Screen. Data for tumor model Lewis Lung Carcinoma (intramuscular) in B6D2F1 (BDF1) mice
Method in brief: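 Value is the ratio of a treated-group measurement (T) to the matching vehicle-control measurement (C), using either survival or tumour size in mice bearing transplanted tumours.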

[1] = endpoint: median survival time, dose: 25.0 mg/kg/injection, schedule: Q01DX011 (ip), vehicle: saline, higher = longer survival

## O=c1[nH]c(=O)n(C2CC(O)C(CO)O2)cc1F (centres undefined)
endpoint: mean tumor weight, dose: 10.0 mg/kg/injection, schedule: Q01DX009 (ip), vehicle: saline, higher = larger tumour
  T/C: 59 % of control
endpoint: mean tumor weight, dose: 10.0 mg/kg/injection, schedule: Q01DX011 (ip), vehicle: other, higher = larger tumour
  T/C: 83 % of control
endpoint: mean tumor weight, dose: 20.0 mg/kg/injection, schedule: Q01DX009 (ip), vehicle: saline, higher = larger tumour
  T/C: 72 % of control
endpoint: mean tumor weight, dose: 20.0 mg/kg/injection, schedule: Q01DX011 (ip), vehicle: other, higher = larger tumour
  T/C: 29 % of control
endpoint: mean tumor weight, dose: 20.0 mg/kg/injection, schedule: Q01DX011 (ip), vehicle: saline, higher = larger tumour
  T/C: 31 % of control and 42 % of control
endpoint: mean tumor weight, dose: 25.0 mg/kg/injection, schedule: Q01DX011 (ip), vehicle: saline, higher = larger tumour
  T/C: 58 % of control
endpoint: mean tumor weight, dose: 40.0 mg/kg/injection, schedule: Q01DX009 (ip), vehicle: saline, higher = larger tumour
  T/C: 65 % of control
endpoint: mean tumor weight, dose: 40.0 mg/kg/injection, schedule: Q01DX011 (ip), vehicle: saline, higher = larger tumour
  T/C: 10 % of control and 17 % of control
endpoint: mean tumor weight, dose: 50.0 mg/kg/injection, schedule: Q01DX011 (ip), vehicle: saline, higher = larger tumour
  T/C: 18 % of control
endpoint: mean tumor weight, dose: 80.0 mg/kg/injection, schedule: Q01DX009 (ip), vehicle: saline, higher = larger tumour
  T/C: 16 % of control
endpoint: mean tumor weight, dose: 80.0 mg/kg/injection, schedule: Q01DX011 (ip), vehicle: other, higher = larger tumour
  T/C: 4 % of control
endpoint: mean tumor weight, dose: 80.0 mg/kg/injection, schedule: Q01DX011 (ip), vehicle: saline, higher = larger tumour
  T/C: 7 % of control
endpoint: mean tumor weight, dose: 100.0 mg/kg/injection, schedule: Q01DX011 (ip), vehicle: saline, higher = larger tumour
  T/C: 3 % of control
endpoint: median survival time, dose: 10.0 mg/kg/injection, schedule: Q01DX011 (ip), vehicle: other, higher = longer survival
  T/C: 98 % of control
endpoint: median survival time, dose: 10.0 mg/kg/injection, schedule: Q01DX011 (ip), vehicle: saline, higher = longer survival
  T/C: 107 % of control and 120 % of control
endpoint: median survival time, dose: 19.0 mg/kg/injection, schedule: Q01DX007 (sc), vehicle: saline, higher = longer survival
  T/C: 100 % of control
endpoint: median survival time, dose: 20.0 mg/kg/injection, schedule: Q01DX011 (ip), vehicle: other, higher = longer survival
  T/C: 108 % of control
endpoint: median survival time, dose: 20.0 mg/kg/injection, schedule: Q01DX011 (ip), vehicle: saline, higher = longer survival
  T/C: 91 % of control and 112 % of control and 123 % of control
endpoint: median survival time, dose: 20.0 mg/kg/injection, schedule: Q01DX011 (ip), vehicle: water, higher = longer survival
  T/C: 105 % of control
[1]
  T/C: 108 % of control
endpoint: median survival time, dose: 31.0 mg/kg/injection, schedule: Q01DX007 (sc), vehicle: saline, higher = longer survival
  T/C: 121 % of control
endpoint: median survival time, dose: 40.0 mg/kg/injection, schedule: Q01DX009 (ip), vehicle: saline, higher = longer survival
  T/C: 114 % of control and 115 % of control
endpoint: median survival time, dose: 40.0 mg/kg/injection, schedule: Q01DX011 (ip), vehicle: saline, higher = longer survival
  T/C: 97 % of control and 100 % of control
endpoint: median survival time, dose: 40.0 mg/kg/injection, schedule: Q01DX011 (ip), vehicle: water, higher = longer survival
  T/C: 113 % of control
endpoint: median survival time, dose: 50.0 mg/kg/injection, schedule: Q01DX009 (ip), vehicle: saline, higher = longer survival
  T/C: 101 % of control
endpoint: median survival time, dose: 80.0 mg/kg/injection, schedule: Q01DX009 (ip), vehicle: saline, higher = longer survival
  T/C: 124 % of control
endpoint: median survival time, dose: 80.0 mg/kg/injection, schedule: Q01DX011 (ip), vehicle: saline, higher = longer survival
  T/C: 153 % of control
endpoint: median survival time, dose: 80.0 mg/kg/injection, schedule: Q01DX011 (ip), vehicle: water, higher = longer survival
  T/C: 121 % of control
endpoint: median survival time, dose: 86.0 mg/kg/injection, schedule: Q01DX007 (sc), vehicle: saline, higher = longer survival
  T/C: 121 % of control

## CC(C)S(=O)(=O)/C(Cl)=C(/Cl)C(Cl)=C(Cl)Cl
endpoint: mean tumor weight, dose: 25.0 mg/kg/injection, schedule: Q01DX011 (ip), vehicle: sodium bicarbonate, higher = larger tumour
  T/C: 111 % of control
endpoint: mean tumor weight, dose: 50.0 mg/kg/injection, schedule: Q01DX011 (ip), vehicle: sodium bicarbonate, higher = larger tumour
  T/C: 117 % of control
endpoint: mean tumor weight, dose: 100.0 mg/kg/injection, schedule: Q01DX011 (ip), vehicle: sodium bicarbonate, higher = larger tumour
  T/C: 100 % of control
endpoint: median survival time, dose: 50.0 mg/kg/injection, schedule: Q01DX011 (ip), vehicle: sodium bicarbonate, higher = longer survival
  T/C: 87 % of control

## CCOC(=O)C(CS)NC(=O)CCNC(C)=O (centres undefined)
endpoint: median survival time, dose: 4.0 mg/kg/injection, schedule: Q01DX009 (ip), vehicle: water, higher = longer survival
  T/C: 109 % of control
endpoint: median survival time, dose: 8.0 mg/kg/injection, schedule: Q01DX009 (ip), vehicle: water, higher = longer survival
  T/C: 119 % of control
endpoint: median survival time, dose: 32.0 mg/kg/injection, schedule: Q01DX009 (ip), vehicle: water, higher = longer survival
  T/C: 113 % of control
endpoint: median survival time, dose: 64.0 mg/kg/injection, schedule: Q01DX009 (ip), vehicle: water, higher = longer survival
  T/C: 124 % of control

## Nc1ncnc2c1ccn2C1OC(CO)C(O)C1O (centres undefined)
endpoint: median survival time, dose: 0.1 mg/kg/injection, schedule: Q01DX011 (ip), vehicle: steriod suspending solution, higher = longer survival
  T/C: 90 % of control
endpoint: median survival time, dose: 0.19 mg/kg/injection, schedule: Q01DX011 (ip), vehicle: steriod suspending solution, higher = longer survival
  T/C: 101 % of control
endpoint: median survival time, dose: 0.25 mg/kg/injection, schedule: Q01DX011 (ip), vehicle: carboxymethylcellulose (CMC), higher = longer survival
  T/C: 106 % of control
endpoint: median survival time, dose: 0.38 mg/kg/injection, schedule: Q01DX011 (ip), vehicle: steriod suspending solution, higher = longer survival
  T/C: 92 % of control
endpoint: median survival time, dose: 0.5 mg/kg/injection, schedule: Q01DX009 (ip), vehicle: Klucel (hydroxypropylcellulose) (HPC), higher = longer survival
  T/C: 98 % of control
endpoint: median survival time, dose: 0.5 mg/kg/injection, schedule: Q01DX011 (ip), vehicle: carboxymethylcellulose (CMC), higher = longer survival
  T/C: 100 % of control
endpoint: median survival time, dose: 0.75 mg/kg/injection, schedule: Q01DX011 (ip), vehicle: steriod suspending solution, higher = longer survival
  T/C: 86 % of control
endpoint: median tumor weight (est.), dose: 0.1 mg/kg/injection, schedule: Q01DX011 (ip), vehicle: steriod suspending solution, higher = larger tumour
  T/C: 70 % of control
endpoint: median tumor weight (est.), dose: 0.19 mg/kg/injection, schedule: Q01DX011 (ip), vehicle: steriod suspending solution, higher = larger tumour
  T/C: 96 % of control
endpoint: median tumor weight (est.), dose: 0.38 mg/kg/injection, schedule: Q01DX011 (ip), vehicle: steriod suspending solution, higher = larger tumour
  T/C: 70 % of control
endpoint: median tumor weight (est.), dose: 0.75 mg/kg/injection, schedule: Q01DX011 (ip), vehicle: steriod suspending solution, higher = larger tumour
  T/C: 84 % of control

## OCN(CO)c1nc(N(CO)CO)nc(N(CO)CO)n1
endpoint: mean tumor weight (est.), dose: 25.0 mg/kg/injection, schedule: Q01DX011 (ip), vehicle: saline with Tween-80, higher = larger tumour
  T/C: 112 % of control
endpoint: mean tumor weight (est.), dose: 50.0 mg/kg/injection, schedule: Q01DX011 (ip), vehicle: saline with Tween-80, higher = larger tumour
  T/C: 85 % of control
endpoint: mean tumor weight (est.), dose: 100.0 mg/kg/injection, schedule: Q01DX011 (ip), vehicle: saline with Tween-80, higher = larger tumour
  T/C: 116 % of control
endpoint: mean tumor weight (est.), dose: 200.0 mg/kg/injection, schedule: Q01DX011 (ip), vehicle: saline with Tween-80, higher = larger tumour
  T/C: 120 % of control
endpoint: mean tumor weight (est.), dose: 400.0 mg/kg/injection, schedule: Q01DX011 (ip), vehicle: saline with Tween-80, higher = larger tumour
  T/C: 73 % of control

## CNc1ccc(O)cc1
endpoint: mean tumor weight (est.), dose: 6.25 mg/kg/injection, schedule: Q01DX011 (ip), vehicle: saline, higher = larger tumour
  T/C: 97 % of control
endpoint: mean tumor weight (est.), dose: 12.5 mg/kg/injection, schedule: Q01DX011 (ip), vehicle: saline, higher = larger tumour
  T/C: 97 % of control
endpoint: mean tumor weight (est.), dose: 25.0 mg/kg/injection, schedule: Q01DX011 (ip), vehicle: saline, higher = larger tumour
  T/C: 89 % of control
endpoint: mean tumor weight (est.), dose: 50.0 mg/kg/injection, schedule: Q01DX011 (ip), vehicle: saline, higher = larger tumour
  T/C: 82 % of control
endpoint: median survival time, dose: 6.25 mg/kg/injection, schedule: Q01DX011 (ip), vehicle: saline, higher = longer survival
  T/C: 101 % of control
endpoint: median survival time, dose: 12.5 mg/kg/injection, schedule: Q01DX011 (ip), vehicle: saline, higher = longer survival
  T/C: 105 % of control
[1]
  T/C: 100 % of control
endpoint: median survival time, dose: 50.0 mg/kg/injection, schedule: Q01DX011 (ip), vehicle: saline, higher = longer survival
  T/C: 101 % of control

## C[N+](C)(C)c1cc2c(nn1)Nc1ccccc1S2
endpoint: mean tumor weight (est.), dose: 1.06 mg/kg/injection, schedule: Q01DX011 (ip), vehicle: saline, higher = larger tumour
  T/C: 83 % of control
endpoint: mean tumor weight (est.), dose: 2.12 mg/kg/injection, schedule: Q01DX011 (ip), vehicle: saline, higher = larger tumour
  T/C: 88 % of control
endpoint: mean tumor weight (est.), dose: 4.25 mg/kg/injection, schedule: Q01DX011 (ip), vehicle: saline, higher = larger tumour
  T/C: 69 % of control
endpoint: mean tumor weight (est.), dose: 8.5 mg/kg/injection, schedule: Q01DX011 (ip), vehicle: saline, higher = larger tumour
  T/C: 110 % of control
endpoint: median survival time, dose: 1.06 mg/kg/injection, schedule: Q01DX011 (ip), vehicle: saline, higher = longer survival
  T/C: 103 % of control
endpoint: median survival time, dose: 2.12 mg/kg/injection, schedule: Q01DX011 (ip), vehicle: saline, higher = longer survival
  T/C: 100 % of control
endpoint: median survival time, dose: 4.25 mg/kg/injection, schedule: Q01DX011 (ip), vehicle: saline, higher = longer survival
  T/C: 105 % of control
endpoint: median survival time, dose: 8.5 mg/kg/injection, schedule: Q01DX011 (ip), vehicle: saline, higher = longer survival
  T/C: 96 % of control

## C[C@@H]1O[C@@H](O[C@H]2CC[C@]3(C=O)[C@H]4CC[C@]5(C)[C@@H](c6ccc(=O)oc6)CC[C@]5(O)[C@@H]4CC[C@]3(O)C2)[C@H](O)[C@H](O)[C@H]1O[C@@H]1O[C@H](CO)[C@@H](O)[C@H](O)[C@H]1O
endpoint: mean tumor weight (est.), dose: 0.63 mg/kg/injection, schedule: Q01DX011 (ip), vehicle: saline, higher = larger tumour
  T/C: 80 % of control
endpoint: mean tumor weight (est.), dose: 1.25 mg/kg/injection, schedule: Q01DX011 (ip), vehicle: saline, higher = larger tumour
  T/C: 89 % of control
endpoint: median survival time, dose: 0.63 mg/kg/injection, schedule: Q01DX011 (ip), vehicle: saline, higher = longer survival
  T/C: 108 % of control
endpoint: median survival time, dose: 1.25 mg/kg/injection, schedule: Q01DX011 (ip), vehicle: saline, higher = longer survival
  T/C: 98 % of control

## COCC(O)Cn1ccnc1[N+](=O)[O-] (centres undefined)
endpoint: median survival time, dose: 600.0 mg/kg/injection, schedule: Q01DX001 (ip), vehicle: saline, higher = longer survival
  T/C: 90 % of control and 92 % of control and 96 % of control
endpoint: median survival time, dose: 1000.0 mg/kg/injection, schedule: Q01DX001 (ip), vehicle: saline, higher = longer survival
  T/C: 92 % of control and 104 % of control and 106 % of control

## c1ccc(-c2csc3c4ccccc4c4ccccc4[n+]23)cc1
endpoint: mean tumor weight (est.), dose: 0.5 mg/kg/injection, schedule: Q01DX011 (ip), vehicle: saline with Tween-80, higher = larger tumour
  T/C: 102 % of control
endpoint: mean tumor weight (est.), dose: 2.0 mg/kg/injection, schedule: Q01DX011 (ip), vehicle: saline with Tween-80, higher = larger tumour
  T/C: 61 % of control
endpoint: median survival time, dose: 0.5 mg/kg/injection, schedule: Q01DX011 (ip), vehicle: saline with Tween-80, higher = longer survival
  T/C: 89 % of control
endpoint: median survival time, dose: 2.0 mg/kg/injection, schedule: Q01DX011 (ip), vehicle: saline with Tween-80, higher = longer survival
  T/C: 93 % of control
